From a melting point compilation (Tetko et al.; mined from patent text by program, amines drawn as free bases though some values may be those of a salt)

With c1ccc(C(Oc2ccncc2)c2ccccc2)cc1 the melting point was 68 to 70 °C.
COc1cc(OC(c2ccccc2)c2ccccc2)ccc1/C=C/c1cc(/C=C/c2ccc3cc[nH]c3c2)[nH]n1 showed a melting point of 114 to 119 °C.
With COc1cc(OC)c(-c2cccs2)cc1/C=C/C(=O)c1ccc(S(=O)(=O)Nc2nccs2)cc1 the melting point was 220 to 221 °C.
In the case of COc1nc2cc([N+](=O)[O-])cc(C)c2nc1OC, the melting point is reported as 167 to 168 °C.
COc1ccc(CCN2C=CC=C3C2=Nc2ccccc2OS3(=O)=O)cc1O showed a melting point of 158 to 160 °C.
In the case of COc1ccc(-c2cc(COS(C)(=O)=O)c(=O)n(CC3CCCC3)n2)cc1F, the melting point is reported as 108 to 116 °C.
Work on COc1ncccc1C(=O)NC1CN(C)CCn2c1nc(-c1ccncn1)cc2=O (racemic) yielded a melting point of 228 to 230 °C.
CC(C)=CCN1CCOC(CN2c3ccccc3C=Cc3ccccc32)C1 (stereo unspecified) gave a melting point of 99 to 100 °C.
COC(=O)c1ccccc1S(=O)(=O)NC(=O)Nc1nnc(C)c(C)n1 gave a melting point of 150 to 151 °C.
In the case of COc1cc(NC(C)=O)ccc1OCCO, the melting point is reported as 157 to 159 °C.
CC1=C(C)C(O)N(c2nnc(C(C)(C)C)s2)C1=O (stereo unspecified) gave a melting point of 179 to 182 °C.
Compound O=[N+]([O-])c1ccc(CN2CCNCCNCCNCC2)cc1 has a melting point of 128 to 129 °C.
COC(=O)OCC1OC(n2cc(C)c(=O)[nH]c2=O)CC1OS(C)(=O)=O (stereo unspecified) showed a melting point of 70 to 72 °C.
For CC(=O)c1ccc(C(=O)N2Cc3cccn3Cc3ccccc32)cc1, the melting point was 135 to 137 °C.
Compound CC(C)c1cc(Cl)cc(C(C)C)c1NC(=O)NS(=O)(=O)c1cc(C2(C)OCCO2)ccc1F has a melting point of 168 to 170 °C.
With COC(=O)CCC/C=C/c1nn(-c2ccc(NC(C)=O)cc2)c2c1CCC2 the melting point was 118 to 120 °C.
Work on CCS(=O)(=O)Oc1cccc([N+](=O)[O-])c1 yielded a melting point of 110 °C.
O=C1NC(Cc2ccc([N+](=O)[O-])c(OCc3ccccc3)c2)C(=O)Nc2ccccc21 (stereo unspecified) gave a melting point of 243 to 245 °C.
CC/C(=C(/C)C#N)c1cccc(O)c1 gave a melting point of 80 to 83 °C.
For C[C@]1(COc2ccc(N3CCC(OCc4ccc(C(F)(F)F)cc4)CC3)cc2)Cn2cc([N+](=O)[O-])nc2O1, the melting point was 217 to 220 °C.
In the case of CCOC(=O)COc1ccc(OCc2ccccc2)cc1, the melting point is reported as 65 to 68 °C.
Work on COc1cc(F)c(F)cc1C=O yielded a melting point of 74 °C.
With O=Cc1c(O)ccc2cccnc12 the melting point was 127 to 130 °C.
O=C(NC1CCN(Cc2ccccc2)CC1)c1ccc(NCc2ccnc3ccccc23)cc1 gave a melting point of 184 to 188 °C.
In the case of CC(O)CC(=O)Nc1c(C(=O)c2ccccc2)[nH]c2cc(Cl)ccc12 (stereo unspecified), the melting point is reported as 159 to 162 °C.
CCCCc1nc(C(=O)C(C)C)c(C#N)[nH]1 gave a melting point of 88 to 89 °C.
With N#Cc1cc(NC(=O)c2cc3ccccc3s2)ccc1N1CCC(N2CCCCC2)CC1 the melting point was 275 °C.
CN(C)CCCOc1ccc(C[C@H](NC(=O)[C@@H]2CCCN2S(=O)(=O)c2cc(Cl)sc2Cl)C(=O)O)cc1 gave a melting point greater than 200 °C.
In the case of CN1C(=O)CCC1(O)c1cccc(C(F)(F)F)c1 (stereo unspecified), the melting point is reported as 137 to 139 °C.
Compound CC(C)n1nc(-c2c(OC3CCOCC3)nc(N)nc2-c2ccccc2)ccc1=O has a melting point of 207 to 209 °C.
O=C(CCCN1CCCCC1)c1ccc2c(c1)Cc1cc(C(=O)CCCN3CCCCC3)ccc1O2 showed a melting point of 115 to 117 °C.
Work on CC(C)C(CS(=O)(=O)c1ccc(-c2cccc(CNC(=O)c3nc4ccccc4c(=O)[nH]3)c2)cc1)N(O)C(N)=O (stereo unspecified) yielded a melting point of 193 to 195 °C.
Clc1c(OCCN2CCCCC2)ccc2cc3ccc(OCCN4CCCCC4)c(Cl)c3nc12 showed a melting point of 173 to 174 °C.
In the case of Cc1cccc(CCOc2ccc(C=C3SC(=O)NC3=O)cc2)n1, the melting point is reported as 180 to 182 °C.
NC1(C2CCN(c3c(F)cc4c(=O)[nH]c(=O)n(C5CC5)c4c3OC(F)F)C2)CC1 (stereo unspecified) showed a melting point of 210 to 214 °C.
CC(=O)c1oc2c(sc3ccccc32)c1O showed a melting point of 196 to 197 °C.
O=C(Nc1nc2ccccc2nc1Oc1ccccc1)N1CCN(C(c2ccccc2)c2ccccc2)CC1 gave a melting point of 208 to 210 °C.
Work on O=c1c(Cl)c(Cl)cnn1C1CCCCO1 (stereo unspecified) yielded a melting point of 74 to 76 °C.
NNc1c(S(=O)(=O)C(F)(F)F)cnn1-c1c(Cl)cc(C(F)(F)F)cc1Cl showed a melting point of 154 °C.
Compound CCOC(=O)C1=Cc2cc(I)ccc2OC1C(F)(F)F (stereo unspecified) has a melting point of 105 to 106 °C.
CC(C)(C)OC(=O)Nc1ccc2ccc(S(=O)(=O)N(Cc3ccccc3)Cc3ccccc3)cc2c1Br gave a melting point of 150 to 151 °C.
With O=C(c1ccccc1F)c1ccc(O)c(Cl)c1Cl the melting point was 128 to 131 °C.
CCOC(=O)c1nc(S)n(-c2ccccc2)c1C(=O)OCC gave a melting point of 145 to 146 °C.
In the case of CCCCCCCCCCCCc1ccc(S(=O)(=O)Nc2nnc(C(=O)OCC)s2)cc1, the melting point is reported as 96 to 97 °C.
With COc1cc(S(=O)(=O)Nc2ccccc2)c(OC)cc1NC(=O)[C@@](C)(O)C(F)(F)F the melting point was 194 to 195 °C.
Compound COc1ccccc1N1CCN(CCn2c(=O)[nH]c3scc(C)c3c2=O)CC1 has a melting point of 209 to 213 °C.
Work on O=C(Nc1ccn(C(=O)c2ccccc2)c(=O)n1)c1ccccc1 yielded a melting point of 215 to 216 °C.
COC(=O)CCc1cc(C(=O)c2ccccc2Cl)c(N)s1 showed a melting point of 89 to 90 °C.
Compound CCOc1ccc2c(c1)n(C1CCCCC1)c(=O)n2Cc1ccc(-n2cccc2)cc1OC has a melting point of 115 °C.
Work on O=c1oc(CO)nn1Cc1ccccc1 yielded a melting point of 54 °C.
Compound CN1CCN(c2n[nH]c(-c3ccc(I)cc3)c2-c2ccncc2)CC1 has a melting point of 265 to 266 °C.
COC(=O)c1c(C)nc2c(c1N)c1ccccc1n2C showed a melting point of 98 to 100 °C.
FC(F)(F)c1ccc(C2CNCc3[nH]c4ccccc4c32)cc1 (stereo unspecified) showed a melting point of 172 to 174 °C.
O=C(Cc1ccc2ccccc2n1)NC1CCC2(O)C3Cc4ccc(O)c5c4C2(CCN3CC2CC2)C1O5 (stereo unspecified) showed a melting point of 212 to 214 °C.
CCc1cc(-c2nc(C)c(-c3ccnc(Nc4ccc(S(=O)(=O)NCCO)cc4)n3)s2)ccn1 gave a melting point of 233 to 234 °C.
Work on C#CCCOc1cc(/C=C/C(=O)Nc2ccccc2C(=O)O)ccc1OC yielded a melting point of 197 to 198 °C.
With CCc1nc2c(C)cc(C)nc2n1Cc1ccc(C(Cc2nnn[nH]2)c2ccccc2Cl)cc1 (stereo unspecified) the melting point was 217 to 221 °C.
Work on COC(=O)c1cc(Cl)cc(CC=O)c1O yielded a melting point of 49 to 59 °C.
For CCCCN1C(=O)NC(CC(=O)O)C1=O (stereo unspecified), the melting point was 132 °C.
N#Cc1ccccc1Cc1c(-c2ccc(OC(F)F)c(OC3CC3)c2)[nH]c2cn[nH]c(=O)c12 showed a melting point greater than 300 °C.
Work on COc1ccc2cc(C=O)ccc2c1Br yielded a melting point of 133 to 135 °C.
Nc1nc2ccccc2c2c1ncn2CCCCNC(=O)c1ccc(Oc2ccccc2)cc1 gave a melting point of 90.5 to 91.5 °C.
Cn1c(C(O)(C(F)(F)F)C(F)(F)F)cc(-c2ccc(F)cc2)c1-c1ccc(F)cc1 gave a melting point of 130 to 131 °C.
For COC(=O)c1c(C(=O)OC)c2sc3ccccc3n2c1-c1ccc(Cl)cc1, the melting point was 172 to 173 °C.
For CC(C)c1cccc(C(C)C)c1OCC(N)=O, the melting point was 136 to 138 °C.
Nc1nc(N)c(-c2ccc(Cl)cc2Cl)c(Cl)n1 showed a melting point of 219 °C.
For COC(=O)CCCC(C)(C)c1cc(Cl)c(O)c(Cl)c1, the melting point was 101 to 103 °C.
Compound COc1nc(N)nn1C has a melting point of 177 to 180 °C.
Compound CCOC(=O)CNS(=O)(=O)c1sccc1C=O has a melting point of 74 to 76 °C.
With CN1CCN(C2=Nc3ccccc3-n3ccc4cc(Cl)cc2c43)CC1 the melting point was 170 to 172 °C.
With CNC(=N)N(C)Cc1ccc(C)cc1 the melting point was 118 to 125 °C.
Work on C=CCNC(=O)c1ccc(N)cc1Br yielded a melting point of 115 to 117 °C.
Compound COc1ccnc2[nH]c(CO)cc12 has a melting point of 210 to 212 °C.
Cc1ccc(-n2nc(Sc3ccc(Cl)cc3)c(C)c(C#N)c2=O)cc1 showed a melting point of 190 to 192 °C.
NOCC=Cc1ccc(Br)cc1 gave a melting point of 35 to 38 °C.
COc1cc2c(Nc3ccc(Cl)cc3F)ncnc2cc1OCCCn1ccc(=O)cc1 gave a melting point greater than 250 °C.
In the case of O=C(O)c1ccc(OC2=C3N=C4CCCCC4=C3C(CCCCc3ccccc3)C=C2)o1 (stereo unspecified), the melting point is reported as 120 to 121 °C.
CN(C)CCc1c[nH]c2ccc(Oc3ccc(Br)cc3)cc12 gave a melting point of 160 to 162 °C.
NC1(CO)CCCNC1=O (stereo unspecified) gave a melting point of 145 °C.
In the case of COc1cccc(C2C(=O)CCc3ccccc32)c1 (stereo unspecified), the melting point is reported as 161 to 162 °C.
N#Cc1cccc(C(=O)Nc2ccc(-n3nc(C(F)(F)F)cc3C(F)(F)F)nc2)c1 gave a melting point of 206 to 208 °C.
In the case of CCCc1nc2ccnn2c(O)c1Cc1ccc(-c2ccccc2-c2nnn[nH]2)cc1, the melting point is reported as greater than 320 °C.
Compound COc1ccc(CN(C(=O)C(F)(F)F)c2cc(F)cc(C#N)c2)cc1 has a melting point of 102 to 103 °C.
With Cc1ccc(S(=O)(=O)N(c2ccc([N+](=O)[O-])cc2Cl)C(C)C)cc1 the melting point was 154 to 157 °C.
For CCCC=Cc1c(C(C)C)nc(C(C)C)c(C(=O)OCC)c1-c1ccc(C)cc1, the melting point was 74 to 77 °C.
Compound C#CC1(O)CCC2C3CCC4=CC(=O)CCC4C3C(C(F)F)CC21C (stereo unspecified) has a melting point of 185 to 187 °C.
Compound C=CCN(CC=C)CC(=O)N1c2ccccc2N(CCCC)C(=O)c2cnc(-c3ccccc3)nc21 has a melting point of 137 to 138 °C.
For O=C(CCCN1CCCC1=O)Nc1ncccc1C(=O)c1cccs1, the melting point was 143 to 145 °C.
Work on CCCCNC(=O)NS(=O)(=O)c1cccc2c1S(=O)(=O)N(C)C2 yielded a melting point of 162 to 164 °C.
Compound COc1cc(OC)c2c(=O)cc(-c3n[nH]c4ccccc34)oc2c1 has a melting point of 253 to 255 °C.
For CCOC(=O)C(=CNc1ccnn1Cc1ccco1)C(=O)c1ccccc1, the melting point was 75 to 77 °C.
Compound CN(C)C(=O)c1ccccc1I has a melting point of 33 to 36 °C.
Compound Cc1cc(-c2ccc(-c3ccoc3)cc2)n(-c2ccc(S(C)(=O)=O)cc2)c1 has a melting point of 193 to 195 °C.
With CCCCCCCCCCCCCCCC1Cc2cc(C(=O)O)ccc2N1 (racemic) the melting point was 102 to 104 °C.
N#Cc1ccc(N2CCC(O)C2)c2ccccc12 (stereo unspecified) gave a melting point of 138 to 139 °C.
Work on Nc1ccc(C(=O)CCCN2CCC(OC(=O)c3cc(Cl)c(N)c4c3OCC4)CC2)cc1N yielded a melting point of 173 °C.
CC(Cc1c[nH]c2ccccc12)(NC(=O)OC1C2CC3CC(C2)CC1C3)C(=O)NCCc1cnccn1 (stereo unspecified) gave a melting point of 97 to 101 °C.
For O=C1CSC2CN=C(c3ccccc3)c3cc(Cl)ccc3N12 (stereo unspecified), the melting point was 228 to 230 °C.
Compound CN1CCC2(CC1)OC(c1ccccc1)c1ccccc12 (stereo unspecified) has a melting point of 123 to 124 °C.
Compound COc1cncc2nc(SCc3ccccc3)nn12 has a melting point of 114 to 116 °C.
Compound CCCC(=O)Nc1c(C)c(C)c2c(c1C)C(c1ccc(C(C)C)cc1)CO2 (stereo unspecified) has a melting point of 177 to 178 °C.
